# Experimental data as given in US10722484B2, “Methods of cancer treatment” (K-Gen, Inc., priority 2016, dated 2020).
# How the values were obtained:
# [1] = system: Namalwa (Burkitt's lymphoma); experiment: Combination viability/proliferation assays; conditions: K101A (0.1 μM) or K102 (0.001 μM)
# Method: (§2) Briefly, cells at density of 1,000-10,000 cells/well in 96-well plates or 200-1600 cells/well in 384-well plates were seeded and incubated at 37° C. for 24 hours before addition of compounds. A series of 9 different concentrations of compound stocks (500×) were prepared by 3-fold serial dilutions in DMSO. […] After 96 hours of incubation, 35 μL or 50 μL of CellTiter Glo reagent (Promega) was added to each well and luminescence was measured after 10 minutes using EnVision (PerkinElmer). Luminescence from cells treated with DMSO alone was set as Max and % of inhibition was calculated as follows: Inhibition %=(Max-Sample value)/Max*100. Data were analyzed using XLfit software (ID Business Solutions Ltd.) or GraphPad software and IC50, relative IC50, and % of top inhibition were calculated.
# Various drugs or compounds (Table 10) were screened and assayed in 384-well plates as 9-point 3-fold dilution series alone and in combination with 2-3 doses of the specified PKC activator compounds (e.g., K101A, K101E, and K102). The top concentration for the tested PKC activator compound was set at roughly the IC50 when the same testing compound was used as a single agent assayed in the same cell line. The next dose was either 3-fold or 10-fold dilution from the top concentration. […]
# [2] = system: A549 lung cancer cell line; experiment: Combination viability/proliferation assays (384-well IC50 ratio, 96-well MacSynergy II); format: cell-based; conditions: for effect in combination with the PKC activator compounds in inhibiting the growth of A549 cells: PKC activator compounds (K101A, K101E, K102); for Combination in A549: K101A (synergism/antagonism): agent assayed in combination with K101A; for Combination in A549: K101A (synergism/antagonism) / Combination in A549: K102 (synergism/antagonism): * 2-3 concentrations, # full concentration ranges; for Combination in A549: K101E (synergism/antagonism): agent assayed in combination with K101E; for Combination in A549: K102 (synergism/antagonism): agent assayed in combination with K102
# [3] = system: Mino (Mantle cell lymphoma); experiment: Combination viability/proliferation assays; conditions: Mino; K101A (0.1 μM) or K102 (0.001 μM); especially below 0.1 μM cytarabine
# Method: as §2
# Various drugs or compounds (Table 10) were screened and assayed in 384-well plates as 9-point 3-fold dilution series alone and in combination with 2-3 doses of the specified PKC activator compounds (e.g., K101A, K101E, and K102). The top concentration for the tested PKC activator compound was set at roughly the IC50 when the same testing compound was used as a single agent assayed in the same cell line. The next dose was either 3-fold or 10-fold dilution from the top concentration.
# The PKC activating agents (e.g., K101A, K101E, and K102) in combination with other chemotherapeutic agents, including standard chemotherapies and certain chemotherapeutic agents targeting certain cell signaling pathways, were also examined on cancer cells other than lung cancer cells.
# [4] = system: HL-60 human promyelocytic leukemia cells; experiment: Combination viability/proliferation assays
# Method: as §2
# (§3) The top concentration for the tested PKC activator compound was set at roughly the IC50 when the same testing compound was used as a single agent assayed in the same cell line. The next dose was either 3-fold or 10-fold dilution from the top concentration.
# [5] = system: THP-1 human acute monocytic leukemia cells; experiment: Combination viability/proliferation assays; conditions: K101A (0.3 μM) and K102 (0.005 μM)
# Method: as §2, §3
# [6] = system: MV-4-11 human myelomonocytic leukemia; experiment: Combination viability/proliferation assays; conditions: K101A (0.1 μM) or K102 (0.01 μM)
# Method: as §2, §3
# [7] = system: colon cancer cell line Colo205; experiment: MacSynergy combination experiments; format: cell-based
# Method: (§1) A 96-well MacSynergy II format for combination test was also used. […] The analysis was done with the SQRT(Data) scale and the four parameter Hill curve was fitted using XLfit5.1 (the MacSynergy II Excel Spreadsheet) for the inhibition data. Synergy (positive number) or Antagonism (negative number) volumes were calculated. […] Three-dimensional MacSynergy II graphs were generated where positive values indicated synergism and negative values indicated antagonism.
# Panc2.13 = experiment: Combination viability/proliferation assays; format: cell-based
# Method: as §1
# Panc1 = experiment: Combination viability/proliferation assays; format: cell-based; conditions: for Combination effect, Panel: K102: agent in combination with K102
# Method: as §1
# [8] = A549, in combination with 0.005 μM K101A, NC: no change
# [9] = A549, in combination with 0.05 μM K101A, NC: no change
# [10] = A549, in combination with 0.5 μM K101A, ratio >2 synergistic, <0.5 antagonistic, NC: no change
structure (smiles),measurement,setting,value
CC[C@H](Nc1ncnc2[nH]cnc12)c1nc2cccc(F)c2c(=O)n1-c1ccccc1 [Idelalisib],effect in combination with K101A or K102,[1],synergistic anti-proliferative effect
same,increase of inhibition,[1]; roughly 0.03-3 μM idelalisib/CAL-101,at least 20%
same,Ratio ([…] DMSO IC50/combination IC50),"[2]; A549, in combination with 0.0002 μM K102, NC: no change",0.81
same,Ratio ([…] DMSO IC50/combination IC50),"[2]; A549, in combination with 0.002 μM K102, NC: no change",1.76
same,Ratio ([…] DMSO IC50/combination IC50),[2]; [8],1.04
same,Ratio ([…] DMSO IC50/combination IC50),"[2]; A549, in combination with 0.02 μM K102, NC: no change",3.55
same,Ratio ([…] DMSO IC50/combination IC50),[2]; [9],1.89
same,Ratio ([…] DMSO IC50/combination IC50),[2]; [10],5.05
same,effect in combination with the PKC activator compounds in inhibiting the growth of A549 cells,[2],strong synergy
same,Combination in A549: K101A (synergism/antagonism),[2]; A549,Synergism
same,Combination in A549: K101E (synergism/antagonism),[2]; A549,Synergism
same,Combination in A549: K102 (synergism/antagonism),[2]; A549,Synergism
Nc1ccn([C@@H]2O[C@H](CO)[C@@H](O)[C@@H]2O)c(=O)n1 [Cytarabine],effect in combination with K101A or K102,[3],synergistic anti-proliferative effect
same,effect in combination with K101A and K102,[4],strong synergy
same,shift of the inhibition curve to the left,[4]; in combination with K101A (0.3 μM),half-log
same,shift of the inhibition curve to the left,[4]; in combination with K102 (0.005 μM),full-log
same,effect in combination with K101A and K102,[5],synergy
"CC1=C(/C=C/C(C)=C/C=C/C(C)=C/C(=O)O)C(C)(C)CCC1 [ATRA, all-trans-retinoic acid]",effect in combination with K101A and K102,[4],strong synergy
same,shift of the inhibition curve up,"[4]; addition of K101A (0.3 μM) or K102 (0.005 μM), after subtracting inhibition by K101A or K102 alone",5-40%
same,shift of the inhibition curve up,[6],5-20%
N.N.[Cl][Pt][Cl] [Cisplatin],synergy volume (MacSynergy),"[7]; Colo205, in combination with K101A (column not headed)",49
same,synergy volume (MacSynergy),"[7]; Colo205, in combination with K102 (column not headed)",41
same,effect in combination with K101A,"Panc2.13; Panc2.13, K101A at 1 μM or at 0.67 μM",strong synergy
same,"Combination effect, Panc2.13: K101A",Panc2.13; agent in combination with K101A,Synergism
same,effect at highest concentrations of combination agents,"Panc1; Panc1, with K101A or K102",Slight antagonism
same,"Combination effect, Panel: K102",Panc1,None
same,"Combination effect, Panel: K102",Panc1; listed as cisplatin,not
same,dose range for the strongest synergy,"[2]; A549, cisplatin combined with PKC activator compounds (FIG. 6A)",0.625 to 2.5 µM
same,Ratio ([…] DMSO IC50/combination IC50),[2]; [8],0.53
same,Ratio ([…] DMSO IC50/combination IC50),"[2]; A549, in combination with 0.04 μM K102 (footnote, Cisplatin)",2.61
same,Ratio ([…] DMSO IC50/combination IC50),[2]; [9],0.86
same,Ratio ([…] DMSO IC50/combination IC50),"[2]; A549, in combination with 0.13 μM K102 (footnote, Cisplatin)",2.52
same,Ratio ([…] DMSO IC50/combination IC50),[2]; [10],2.68
same,Ratio ([…] DMSO IC50/combination IC50),"[2]; A549, in combination with 1 μM K101E (footnote, Cisplatin)",1.37
same,Ratio ([…] DMSO IC50/combination IC50),"[2]; A549, in combination with 3 μM K101E (footnote, Cisplatin)",1.75
same,synergy at cisplatin dose levels higher than […],"[2]; A549, with PKC activator compounds",minimal synergy
same,effect in combination with the PKC activator compounds in inhibiting the growth of A549 cells,[2],strong synergistic effect
same,Combination in A549: K101A (synergism/antagonism),[2]; A549,Synergism (strong)
same,Combination in A549: K101E (synergism/antagonism),[2]; A549,None
same,Combination in A549: K102 (synergism/antagonism),[2]; A549,Synergism (strong)
